Results: PubChem BioAssay (NCI)
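Results reflect a 48-hour exposure of cells in 96-well plates to compound at five concentrations. At the GI50, growth is halved. Definition used: TGI = concentration required for complete inhibition of growth.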

Legend:
Experiment in all cases: NCI-60 cell line screen, 48 h
SF-539 CNS = test system: SF-539 CNS
SK-MEL-5 melanoma = test system: SK-MEL-5 melanoma
RPMI-8226 leukemia = test system: RPMI-8226 leukemia
786-0 renal = test system: 786-0 renal
HOP-62 NSCLC = test system: HOP-62 NSCLC
M14 melanoma = test system: M14 melanoma
K-562 leukemia = test system: K-562 leukemia
EKVX NSCLC = test system: EKVX NSCLC
U251 CNS = test system: U251 CNS
HT29 colon = test system: HT29 colon

SMILES	TGI (SF-539 CNS) [µM]	TGI (SK-MEL-5 melanoma) [µM]	TGI (RPMI-8226 leukemia) [µM]	TGI (786-0 renal) [µM]	TGI (HOP-62 NSCLC) [µM]	TGI (M14 melanoma) [µM]	TGI (K-562 leukemia) [µM]	TGI (EKVX NSCLC) [µM]	TGI (U251 CNS) [µM]	GI50 (SF-539 CNS) [µM]	GI50 (SK-MEL-5 melanoma) [µM]	GI50 (RPMI-8226 leukemia) [µM]	GI50 (786-0 renal) [µM]	GI50 (HOP-62 NSCLC) [µM]	GI50 (M14 melanoma) [µM]	GI50 (K-562 leukemia) [µM]	GI50 (EKVX NSCLC) [µM]	GI50 (U251 CNS) [µM]	GI50 (HT29 colon) [µM]	TGI (HT29 colon) [µM]
CC1CC(c2ccccc2)=Nc2ccccc2S1(=O)=O (centres undefined)	34.1	32.5	5.59	30.9	39.8	40.9	41.9	39.6	31.9	–	–	–	–	–	–	–	–	–	–	–
N#CCCc1nc2ccc(Br)cc2c(=O)n1CCO	> 100	> 100	> 100	> 100	> 100	> 100	> 100	> 100	–	–	–	–	–	–	–	–	–	–	–	–
O=C(Oc1ccc(O)c2c(=O)n3c(cc12)[nH]c1ccccc13)c1ccccc1	36.6	36.9	51.4	32.5	54.5	37	64	> 100	27.4	6.63	15.5	11.8	14.4	22.4	17.9	24.4	24.3	10.1	33.5	> 100
Cc1cc(S(=O)(=O)Nc2nc(N)nc(N3N=CCC3C)n2)c(S)cc1Cl (centres undefined)	> 10	> 10	> 10	> 10	> 10	> 10	> 10	> 10	> 10	–	–	–	–	–	–	–	–	–	–	> 10
O=c1ccn(C2OC(CO)C(O)C2O)c(=O)[nH]1 (centres undefined)	> 1000	> 1000	> 1000	> 1000	> 1000	> 1000	> 1000	> 1000	> 1000	> 1000	> 1000	> 1000	> 1000	> 1000	–	> 1000	> 1000	> 1000	> 1000	> 1000
CC1(C)C=CC[C@]2(C)[C@H]3CC[C@@H]4[C@H]5[C@H](C(=O)/C=C/c6cccnc6)CC[C@]5(CO)CC[C@@]4(C)[C@]3(C)CC[C@@H]12	2.87	2.79	5.35	3.15	3.11	–	–	–	2.65	1.5	1.46	0.843	1.64	1.54	–	–	–	1.24	1.23	2.68
CCN(CC)CCn1c2c3ccccc3ccc2c2oc(=O)c3ccccc3c21	66.1	–	> 100	58.5	80.3	> 100	> 100	> 100	> 100	–	–	–	–	–	–	–	–	–	–	> 100
CC(=O)O/N=C/c1ncccc1CO	> 100	> 100	–	> 100	> 100	> 100	> 100	> 100	> 100	–	–	–	–	–	–	–	–	–	–	> 100
CC(=O)NC(CCCCNC(=O)OCc1ccccc1)C(=O)NCc1ccccc1 (centres undefined)	> 100	> 100	> 100	> 100	> 100	> 100	> 100	> 100	> 100	–	–	–	–	–	–	–	–	–	–	> 100
CC[N+](CCCCCCCCCC[N+](CC)(c1ccccn1)c1ccccn1)(c1ccccn1)c1ccccn1	14.1	–	3.57	66.2	9.15	30.5	16	–	24	1.72	–	0.267	3.76	2.15	2.57	0.49	–	0.526	0.764	12.1
CC1=C2C(O)C(C(C)CO)C(O)CC2(C)C(O)CC1 (centres undefined)	> 100	> 100	> 100	> 100	> 100	> 100	–	> 100	> 100	–	–	–	–	–	–	–	–	–	–	> 100
CC1=CSC2=NC(c3ccc(Cl)c(Cl)c3)=CC(c3ccc(Cl)cc3)N12 (centres undefined)	> 100	> 100	> 100	> 100	> 100	> 100	> 100	–	> 100	> 100	> 100	> 100	> 100	> 100	> 100	> 100	–	> 100	> 100	> 100
COc1ccc(NC(=O)C2C(=O)N(c3ccc(OC)cc3)C(=O)/C2=N/O)cc1 (centres undefined)	36.7	–	> 100	41.9	43.3	> 86.6	> 100	97.2	42.9	–	–	–	–	–	–	–	–	–	–	> 100
Cc1nc2ccc(C(F)(F)F)cc2nc1Nc1ccc(Cl)c(Cl)c1	27.5	–	88.1	16.1	30.5	–	–	–	19.4	–	–	–	–	–	–	–	–	–	–	18.6
Cc1nc(N)sc1C(=O)/C=C/c1ccc(/C=C/C(=O)c2sc(NC(=O)CCCCCCCCC(=O)Nc3nc(C)c(C(=O)/C=C/c4ccc(/C=C/C(=O)c5sc(N)nc5C)cc4)s3)nc2C)cc1	> 100	–	–	> 100	> 100	> 100	> 100	> 100	> 100	–	–	–	–	–	–	–	–	–	–	> 100
c1cnc2c(c1)-n1cccc1C1(CCSCC1)NN2	> 100	> 100	> 100	> 100	> 100	> 100	> 100	> 100	–	–	–	–	–	–	–	–	–	–	–	> 100
c1ccc2c(c1)[I+]c1ccccc1-2	> 50	> 50	> 50	> 50	> 50	–	> 50	> 50	> 50	40.6	24.3	31.7	> 50	28	–	28.2	19.4	25.5	38.6	> 50
CC1(C)C(=O)N(c2ccccc2)C(=O)N1c1nc2ccccc2[nH]1	–	> 100	> 100	> 100	> 100	> 100	> 100	> 100	–	–	–	–	–	–	–	–	–	–	–	> 100
Cc1cc(/C=C2\SC(=Nc3ccccc3)N(C3CCCC3)C2=O)c(C)n1-c1ccc(Cl)cc1	> 100	> 100	> 100	> 100	> 100	–	> 100	–	> 100	> 100	> 100	> 100	> 100	> 100	–	> 100	–	> 100	> 100	> 100

SMILES	TGI (SF-539 CNS) [µM]	TGI (SK-MEL-5 melanoma) [µM]	TGI (RPMI-8226 leukemia) [µM]	TGI (786-0 renal) [µM]	TGI (HOP-62 NSCLC) [µM]	TGI (M14 melanoma) [µM]	TGI (K-562 leukemia) [µM]	TGI (EKVX NSCLC) [µM]	TGI (U251 CNS) [µM]	GI50 (SF-539 CNS) [µM]	GI50 (SK-MEL-5 melanoma) [µM]	GI50 (RPMI-8226 leukemia) [µM]	GI50 (786-0 renal) [µM]	GI50 (HOP-62 NSCLC) [µM]	GI50 (M14 melanoma) [µM]	GI50 (K-562 leukemia) [µM]	GI50 (EKVX NSCLC) [µM]	GI50 (U251 CNS) [µM]	GI50 (HT29 colon) [µM]	TGI (HT29 colon) [µM]
C=CCn1c(C)nc2cc(Nc3nc(Nc4ccc5nc(C)n(CC=C)c5c4)c4ccccc4n3)ccc21	2.22	2.64	3.93	1.08	–	–	–	–	–	1.03	1.36	1.24	0.312	–	–	–	–	–	0.19	0.348
COc1cc(/C=C/c2cc(C(F)(F)F)[nH]c(=O)n2)ccc1OCc1ccccc1F	13.8	20.2	27.1	33.1	25	26.1	98.8	–	18.5	3.68	6.97	3.85	16.2	10.3	12.5	7.55	–	5.23	21.5	43.6
Cc1cc2nc3c(C(OC4OC(CO)C(O)C(O)C4O)C(O)CO)nn(-c4ccccc4)c3nc2cc1C (centres undefined)	> 100	–	> 100	> 100	> 100	> 100	> 100	> 100	> 100	–	–	–	–	–	–	–	–	–	–	> 100
Cc1cc2c(CC(=O)O)[nH]nc2c(C(=O)O)c1C	> 100	–	> 100	> 100	> 100	–	–	> 100	> 100	–	–	–	–	–	–	–	–	–	–	> 100
CCCC(=O)c1c(NOC2OC(COC(C)=O)C(OC(C)=O)C(OC(C)=O)C2OC(C)=O)nc(OC)n(C)c1=O (centres undefined)	> 100	> 100	–	> 100	> 100	> 100	> 100	> 100	> 100	–	–	–	–	–	–	–	–	–	–	> 100
N#CC(C#N)=C(N)/C(C#N)=C\c1ccnc2ccccc12	31.1	34	–	37.2	56.5	> 100	26.1	–	43.1	–	–	–	–	–	–	–	–	–	–	57.7
Cc1ccc(C(=O)c2oc3ccc4c(C)cc(=O)oc4c3c2C)cc1	20.1	> 100	> 100	> 100	> 100	–	> 100	–	> 100	1.41	2.69	7.7	5.96	12.2	–	5.53	–	3.64	8.9	> 100
CCCCC#COP(=O)(OCC)OCC	> 100	> 100	> 100	> 100	> 100	> 100	–	> 100	> 100	–	–	–	–	–	–	–	–	–	–	> 100
COc1ccc2c(c1)C(=O)CC(N)C2 (centres undefined)	–	> 100	> 100	> 100	> 100	> 100	> 100	> 100	> 100	–	–	–	–	–	–	–	–	–	–	> 100
CN1CC(c2ccccc2)N(CCCCN2CC(c3ccccc3)N(C)CC2c2ccccc2)CC1c1ccccc1 (centres undefined)	> 100	> 100	–	> 100	> 100	> 100	> 100	> 100	–	–	–	–	–	–	–	–	–	–	–	> 100
COC1=CC23C=CC1[C@@H](c1ccccc1)C2=C(C)C(=O)N3C(=O)NC1CCCCC1 (some centres undefined)	39.2	29.2	–	32.4	50.2	38.8	> 100	> 100	35.4	–	–	–	–	–	–	–	–	–	–	41.1
COc1cc2nc(-c3ccc(C(F)(F)F)cc3)cc(OCCCN3CCOCC3)c2cc1OC	16.4	0.997	–	4.47	13.1	1.55	15.9	19.6	14.3	3.18	0.288	–	1.76	1.67	0.355	1.18	1.61	1.4	0.54	15.7
O=c1cc(-c2ccccc2)[nH]c2cccc(S)c12	0.594	> 100	> 100	> 100	> 100	> 100	> 100	> 100	11.4	–	–	–	–	–	–	–	–	–	–	–
CC(=O)NC1=N/C(=C/c2cc([N+](=O)[O-])ccc2O)CN1C	> 100	> 100	–	> 100	> 100	> 100	–	> 100	> 100	–	–	–	–	–	–	–	–	–	–	> 100
CCOC(=O)CCC(=O)C1c2cccc(O)c2C(=O)c2c(O)cccc21	1.63	1.4	–	3.26	3.8	1.9	> 100	–	1.53	–	–	–	–	–	–	–	–	–	–	6.24
O=c1cc(-c2ccccc2)[nH]c2cc(Cl)cc(Cl)c12	> 100	> 100	> 100	60	> 100	> 100	> 100	–	> 100	–	–	–	–	–	–	–	–	–	–	> 100
S=C(Nc1ccc(-c2nc3ccccc3[nH]2)cc1)NC1CCCCC1	48.5	–	90.2	–	> 100	53.3	–	–	45.2	22.6	–	16.6	33.2	55.7	22.6	31.5	28.5	19.7	34.4	> 100
COP1(=O)CC2C(Cl)(Cl)C2(C)C1 (centres undefined)	> 100	> 100	> 100	> 100	> 100	> 100	> 100	–	> 100	–	–	–	–	–	–	–	–	–	–	> 100
COc1cc(OC2OC(C)C(O)C(O)C2O)cc2oc(-c3ccc(O)cc3)c(CC=C(C)C)c(=O)c12 (centres undefined)	44.2	30.9	26.6	60	49.6	39.8	27.9	99.4	–	19.5	13.6	9.02	11.7	18.2	19.2	7.91	25.6	–	–	–
